One data set concerns the target T1, Legumain (Homo sapiens) (UniProt Q99538).
T1 sequence (whole entry): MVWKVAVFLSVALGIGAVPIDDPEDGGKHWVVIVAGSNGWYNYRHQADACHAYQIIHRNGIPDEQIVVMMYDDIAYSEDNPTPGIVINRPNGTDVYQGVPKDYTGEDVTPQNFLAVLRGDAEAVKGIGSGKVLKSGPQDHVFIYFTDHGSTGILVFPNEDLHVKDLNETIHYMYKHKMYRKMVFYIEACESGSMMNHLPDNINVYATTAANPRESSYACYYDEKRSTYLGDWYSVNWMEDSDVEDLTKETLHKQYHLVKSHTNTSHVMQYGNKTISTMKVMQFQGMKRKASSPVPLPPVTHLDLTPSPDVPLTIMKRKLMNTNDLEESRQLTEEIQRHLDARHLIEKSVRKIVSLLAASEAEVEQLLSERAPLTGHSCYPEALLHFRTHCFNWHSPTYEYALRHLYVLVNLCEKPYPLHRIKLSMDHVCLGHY
Kind of data set: Inhibition of recombinant human Asparagine endopeptidase at 10 uM preincubated for 5 mins followed by Z-Ala-Ala-Asn-AMC substrate addition measured after 2 hrs by microplate reader relative to control.

For another data set, the target named is T2, Legumain (Homo sapiens, UniProt Q99538).
T2 sequence (Q99538 whole entry): T1 sequence (whole entry)
In words: Inhibition of recombinant human Asparagine endopeptidase preincubated for 5 mins followed by Z-Ala-Ala-Asn-AMC substrate addition measured after 2 hrs by microplate reader.

Data set [1] in a line: Dissociation constant, pKa of compound. The data set is classed as physicochemical.
Another data set relates to L929. Kind of data set: Cytotoxicity of mouse L929 cells assessed as reduction in cell viability at 5 to 500 nM measured after 24 hrs by MTT assay. Type of data set: toxicity, cell-based. The settings on record: l929, 24 h, 0.5 µM, dose 5-500 nM. In general terms: Tetrazolium dyes change colour on reduction, which living cells bring about.

Molecules are shown by their SMILES. Some results are limits rather than exact numbers.

`Nc1ccc(N2CCOCC2)cc1N1CCCC1`: on Legumain (Homo sapiens), the inhibition (in general, the percentage by which the read-out fell short of the control) stood at 42%. The IC50 (commonly the midpoint of a concentration-inhibition curve) on Legumain was > 5000 nM. In addition, the pKa – broadly, the pH at which an ionisable group is half protonated – in data set [1] was 6.96.
In the case of `Nc1ccc(N2CCOCC2)cc1Cl`, the inhibition at Legumain (Homo sapiens) is 47%. For the same molecule, the IC50 at Legumain was > 5000 nM. The same molecule gave a pKa in data set [1] of 4.05.
`Nc1ccc(N2CCSCC2)cc1Cl`: the inhibition at Legumain (Homo sapiens) was 43%. In addition, at Legumain, the IC50 was > 5000 nM. Further, in data set [1], the pKa came to 5.61.
For `CCOC(=O)C1CCN(c2cc(N3CCOCC3)ccc2N)CC1`, the inhibition at Legumain (Homo sapiens) stood at 98%. The IC50 on Legumain was determined as 89 nM. The molecule also gave a pKa in data set [1] of 8.8. Moreover, the Activity entry with L929 is “Non-Toxic”.
The matching figures for `CCOC(=O)C1CCN(c2ccc(N)c(N3CCC(C(=O)OCC)CC3)c2)CC1`: 53%, 4830 nM, 10.6 and “Non-Toxic”.
For `Nc1ccc(N2CCOCC2)cc1N1CCSCC1`, the inhibition on Legumain (Homo sapiens) is 89%. Besides, the IC50 at Legumain came out at 498 nM. In data set [1], the pKa was determined as 8.54.
The matching figures for `Nc1ccc(N2CCSCC2)cc1N1CCSCC1`: 81%, 757 nM and 10.1.
Regarding `Nc1ccc(N2CCOCC2)cc1N1CCOCC1`, the inhibition on Legumain (Homo sapiens) is 100%. Also, the IC50 at Legumain stood at 844 nM. In data set [1], this molecule gave a pKa of 8.54. For the same molecule, in the data set on L929, the Activity result is given as “Non-Toxic”.
In the case of `Nc1ccc(N2CCOCC2)cc1N1CCC[C@H]1CO`, the inhibition on Legumain (Homo sapiens) turned out to be 48%. Also, the IC50 at Legumain is > 5000 nM. Also, the pKa in data set [1] was found to be 6.96.
With `Nc1ccc(N2CCOCC2)cc1N1CCC2(CC1)OCCO2`, the inhibition on Legumain (Homo sapiens) turned out to be 100%. Further, the IC50 on Legumain worked out at 547 nM. In addition, in data set [1], the pKa turned out to be 8.62.
